Where “and” joins values, the source holds several entries; their conditions need not be identical. Equal values may be shown once. Inconclusive results and toxic doses are left out. The calls were made as follows: active = survival T/C of 150% or more; inactive = T/C below 125% in these data.
System: CD2F1 mice, L1210 leukemia ip, survival T/C
Assay: NCI In Vivo Anticancer Drug Screen. Data for tumor model L1210 Leukemia (intraperitoneal) in CD2F1 (CDF1) mice
Details: higher = longer survival
Outline: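 Activity against a transplanted murine tumor was judged by comparing the compound group with a vehicle group. The outcome in the treated animals was divided by that in the controls.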

[1] = endpoint: mean survival time, dose: 100.0 mg/kg/injection, schedule: Q04DX002 (ip), vehicle: saline with Tween-80
[2] = endpoint: mean survival time, dose: 400.0 mg/kg/injection, schedule: Q04DX002 (ip), vehicle: saline with Tween-80
[3] = endpoint: mean survival time, dose: 100.0 mg/kg/injection, schedule: Q01DX001 (ip), vehicle: saline with Tween-80
[4] = endpoint: mean survival time, dose: 200.0 mg/kg/injection, schedule: Q01DX001 (ip), vehicle: saline with Tween-80
[5] = endpoint: mean survival time, dose: 12.5 mg/kg/injection, schedule: Q01DX009 (ip), vehicle: saline with Tween-80
[6] = endpoint: mean survival time, dose: 25.0 mg/kg/injection, schedule: Q01DX009 (ip), vehicle: saline with Tween-80
[7] = endpoint: mean survival time, dose: 50.0 mg/kg/injection, schedule: Q01DX009 (ip), vehicle: saline with Tween-80
[8] = endpoint: mean survival time, dose: 100.0 mg/kg/injection, schedule: Q04DX003 (ip), vehicle: saline with Tween-80
[9] = endpoint: mean survival time, dose: 200.0 mg/kg/injection, schedule: Q04DX003 (ip), vehicle: saline with Tween-80
[10] = endpoint: mean survival time, dose: 400.0 mg/kg/injection, schedule: Q04DX003 (ip), vehicle: saline with Tween-80
[11] = endpoint: mean survival time, dose: 100.0 mg/kg/injection, schedule: Q04DX003 (ip), vehicle: saline
[12] = endpoint: mean survival time, dose: 200.0 mg/kg/injection, schedule: Q04DX003 (ip), vehicle: saline
[13] = endpoint: mean survival time, dose: 75.0 mg/kg/injection, schedule: Q01DX001 (ip), vehicle: saline
[14] = endpoint: mean survival time, dose: 150.0 mg/kg/injection, schedule: Q01DX001 (ip), vehicle: saline

Measured: T/C

CCC(=O)OCCNc1ccc([N+](=O)[O-])cc1[N+](=O)[O-]
inactive: endpoint: mean survival time, dose: 100.0 mg/kg/injection, schedule: Q04DX002 (ip), vehicle: other 106 % of control | endpoint: mean survival time, dose: 200.0 mg/kg/injection, schedule: Q04DX002 (ip), vehicle: other 109 % of control | endpoint: mean survival time, dose: 400.0 mg/kg/injection, schedule: Q04DX002 (ip), vehicle: other 91 % of control

CCCCCCCCCOc1ccc(Cl)cc1
inactive: endpoint: mean survival time, dose: 25.0 mg/kg/injection, schedule: Q04DX002 (ip), vehicle: saline with Tween-80 95 % of control | endpoint: mean survival time, dose: 50.0 mg/kg/injection, schedule: Q04DX002 (ip), vehicle: saline with Tween-80 100 % of control | [1] 90 % of control and 95 % of control | [2] 93 % of control

Nc1nc2c(ncn2-c2cccc(NC(=O)Nc3ccc(S(=O)(=O)F)c(Cl)c3)c2)c(=O)[nH]1 (tested in a mixture with another compound)
inactive: [3] 97 % of control | [4] 95 % of control

CS(=O)(=O)OCCN(CCOS(C)(=O)=O)c1ccc(C=O)cc1
inactive: endpoint: mean survival time, dose: 3.12 mg/kg/injection, schedule: Q01DX009 (ip), vehicle: saline with Tween-80 113 % of control and 115 % of control | endpoint: mean survival time, dose: 6.25 mg/kg/injection, schedule: Q01DX009 (ip), vehicle: saline with Tween-80 115 % of control and 112 % of control | [5] 117 % of control | endpoint: mean survival time, dose: 12.5 mg/kg/injection, schedule: Q01DX009 (ip), vehicle: saline 96 % of control | [6] 112 % of control | endpoint: mean survival time, dose: 25.0 mg/kg/injection, schedule: Q01DX009 (ip), vehicle: saline 102 % of control | [7] 95 % of control

O=[N+]([O-])c1ccc(CSCc2ccc([N+](=O)[O-])cc2)cc1
inactive: endpoint: mean survival time, dose: 50.0 mg/kg/injection, schedule: Q04DX003 (ip), vehicle: Klucel (hydroxypropylcellulose) (HPC) 98 % of control | endpoint: mean survival time, dose: 100.0 mg/kg/injection, schedule: Q04DX003 (ip), vehicle: Klucel (hydroxypropylcellulose) (HPC) 92 % of control | endpoint: mean survival time, dose: 200.0 mg/kg/injection, schedule: Q04DX003 (ip), vehicle: Klucel (hydroxypropylcellulose) (HPC) 97 % of control

O=C(COc1ccc(Cl)cc1Cl)Nc1ccccc1F
inactive: [8] 100 % of control | [9] 94 % of control | [10] 94 % of control

CCCCOC(=O)c1ccc(NC(=O)NCCC)cc1
inactive: [11] 101 % of control | [12] 101 % of control | endpoint: mean survival time, dose: 400.0 mg/kg/injection, schedule: Q04DX003 (ip), vehicle: saline 97 % of control

[Cl][Pt+2][Cl].[NH-]c1cccc(C(F)(F)F)c1.[NH-]c1cccc(C(F)(F)F)c1
inactive: endpoint: mean survival time, dose: 12.5 mg/kg/injection, schedule: Q04DX003 (ip), vehicle: saline with Tween-80 95 % of control | endpoint: mean survival time, dose: 25.0 mg/kg/injection, schedule: Q04DX003 (ip), vehicle: saline with Tween-80 100 % of control | endpoint: mean survival time, dose: 50.0 mg/kg/injection, schedule: Q04DX003 (ip), vehicle: saline with Tween-80 103 % of control

CC(C)n1c(=S)[nH]c2ccccc2c1=O
inactive: endpoint: mean survival time, dose: 100.0 mg/kg/injection, schedule: Q01DX009 (ip), vehicle: saline 97 % of control | endpoint: mean survival time, dose: 200.0 mg/kg/injection, schedule: Q01DX009 (ip), vehicle: saline 100 % of control | endpoint: mean survival time, dose: 400.0 mg/kg/injection, schedule: Q01DX009 (ip), vehicle: saline 100 % of control

CCCCNC(C)(C)C(SSSC(c1ccco1)C(C)(C)NCCCC)c1ccco1 (stereo unspecified)
inactive: [5] 102 % of control | [6] 96 % of control | [7] 98 % of control

C#CC(O)CCC (stereo unspecified)
inactive: endpoint: mean survival time, dose: 100.0 mg/kg/injection, schedule: Q01DX001 (ip), vehicle: saline 97 % of control | endpoint: mean survival time, dose: 200.0 mg/kg/injection, schedule: Q01DX001 (ip), vehicle: saline 97 % of control

[O-][n+]1ccnc2ccccc21
inactive: endpoint: mean survival time, dose: 100.0 mg/kg/injection, schedule: Q04DX002 (ip), vehicle: saline 105 % of control | endpoint: mean survival time, dose: 200.0 mg/kg/injection, schedule: Q04DX002 (ip), vehicle: saline 116 % of control | endpoint: mean survival time, dose: 400.0 mg/kg/injection, schedule: Q04DX002 (ip), vehicle: saline 108 % of control

O=C(NCCN1CCCCC1)C(O)(C1CCCCC1)C1CCCCC1
inactive: [13] 97 % of control | [14] 97 % of control | endpoint: mean survival time, dose: 300.0 mg/kg/injection, schedule: Q01DX001 (ip), vehicle: saline 97 % of control

O=C1CCC2(CC1C1C=CCC1)OCCO2 (stereo unspecified)
inactive: endpoint: mean survival time, dose: 100.0 mg/kg/injection, schedule: Q01DX009 (ip), vehicle: saline with Tween-80 91 % of control | [8] 100 % of control | endpoint: mean survival time, dose: 200.0 mg/kg/injection, schedule: Q01DX009 (ip), vehicle: saline with Tween-80 94 % of control | [9] 102 % of control | endpoint: mean survival time, dose: 400.0 mg/kg/injection, schedule: Q01DX009 (ip), vehicle: saline with Tween-80 100 % of control | [10] 98 % of control

CC1CC(C)(C)N=C(C2(c3ccccc3)CCC2)O1 (stereo unspecified)
inactive: [3] 101 % of control | [1] 101 % of control | [4] 111 % of control | endpoint: mean survival time, dose: 200.0 mg/kg/injection, schedule: Q04DX002 (ip), vehicle: saline with Tween-80 93 % of control | endpoint: mean survival time, dose: 400.0 mg/kg/injection, schedule: Q01DX001 (ip), vehicle: saline with Tween-80 98 % of control | [2] 93 % of control

CC(=O)Cc1ccc(C)cc1
inactive: [8] 97 % of control | [9] 93 % of control | [10] 104 % of control

Nc1nc(=O)n(C2OC(CO)C(O)C2O)c(=O)[nH]1 (stereo unspecified)
inactive: endpoint: mean survival time, dose: 3.12 mg/kg/injection, schedule: Q04DX003 (ip), vehicle: saline 108 % of control | endpoint: mean survival time, dose: 6.25 mg/kg/injection, schedule: Q04DX003 (ip), vehicle: saline 97 % of control | endpoint: mean survival time, dose: 12.5 mg/kg/injection, schedule: Q04DX003 (ip), vehicle: saline 103 % of control | endpoint: mean survival time, dose: 25.0 mg/kg/injection, schedule: Q04DX003 (ip), vehicle: saline 95 % of control | endpoint: mean survival time, dose: 50.0 mg/kg/injection, schedule: Q04DX003 (ip), vehicle: saline 92 % of control | [11] 100 % of control | [12] 95 % of control

CC(=O)C(=O)O.CC(=O)C(=O)O.[NH-]C1CCCCC1[NH-].[Pt+2] (stereo unspecified)
inactive: endpoint: mean survival time, dose: 1.56 mg/kg/injection, schedule: Q04DX003 (ip), vehicle: other 109 % of control | endpoint: mean survival time, dose: 12.5 mg/kg/injection, schedule: Q04DX003 (ip), vehicle: other 120 % of control | endpoint: median survival time, dose: 25.0 mg/kg/injection, schedule: Q01DX009 (ip), vehicle: dextrose 87 % of control

CCCCCCCCCCCCCCCC(=O)N1CC[N+](C)(CC2=CC3(Cl)C(Cl)=C(Cl)C2(Cl)C3(Cl)Cl)CC1 (stereo unspecified)
inactive: [13] 93 % of control | [14] 100 % of control

C1CCC(C2CCCC[N-]2)[N-]C1.CC([NH-])C(=O)O.[Cl][Pt] (stereo unspecified)
inactive: endpoint: median survival time, dose: 10.0 mg/kg/injection, schedule: Q04DX003 (ip), vehicle: saline 107 % of control | endpoint: median survival time, dose: 20.0 mg/kg/injection, schedule: Q04DX003 (ip), vehicle: saline 105 % of control | endpoint: median survival time, dose: 40.0 mg/kg/injection, schedule: Q04DX003 (ip), vehicle: saline 110 % of control | endpoint: median survival time, dose: 80.0 mg/kg/injection, schedule: Q04DX003 (ip), vehicle: saline 97 % of control and 104 % of control | endpoint: median survival time, dose: 160.0 mg/kg/injection, schedule: Q04DX003 (ip), vehicle: saline 108 % of control | endpoint: median survival time, dose: 320.0 mg/kg/injection, schedule: Q04DX003 (ip), vehicle: saline 96 % of control

CCOC(C)C(O)(c1ccc(N(C)C)cc1)c1ccc(N(C)C)cc1 (stereo unspecified)
inactive: endpoint: mean survival time, dose: 100.0 mg/kg/injection, schedule: Q04DX003 (ip), vehicle: other 95 % of control | endpoint: mean survival time, dose: 200.0 mg/kg/injection, schedule: Q04DX003 (ip), vehicle: other 91 % of control | endpoint: mean survival time, dose: 400.0 mg/kg/injection, schedule: Q04DX003 (ip), vehicle: other 97 % of control

CCCCCCCCCCCCCCCCCCCCc1ccccc1
inactive: endpoint: mean survival time, dose: 100.0 mg/kg/injection, schedule: Q04DX002 (ip), vehicle: Klucel (hydroxypropylcellulose) (HPC) 97 % of control | endpoint: mean survival time, dose: 200.0 mg/kg/injection, schedule: Q04DX002 (ip), vehicle: Klucel (hydroxypropylcellulose) (HPC) 94 % of control | endpoint: mean survival time, dose: 400.0 mg/kg/injection, schedule: Q04DX002 (ip), vehicle: Klucel (hydroxypropylcellulose) (HPC) 90 % of control

— PubChem BioAssay AID256 (DTP/NCI, 2004)
